The text below walks through data of US9232796B2, “Herbicidal compositions comprising 4-amino-3-chloro-5-fluoro-6-(4-chloro-2-fluoro-3-methoxyphenyl) pyridine-2-carboxylic acid or a derivative thereof and acetyl-CoA carboxylase (ACCase) inhibitors” (DOW AGROSCIENCES LLC, priority 2012, dated 2016).

One assay relates to SCPMA. Briefly: Example II in-water applied, greenhouse, transplanted paddy rice weeds. The assay is classed as in vivo, Schoenoplectus maritimus (L.) Lye. Here is the method: Weed seeds or nutlets of the desired test plant species were planted in puddled soil (mud) prepared by mixing a shredded, non-sterilized mineral soil (50.5 percent silt, 25.5 percent clay, and 24 percent sand, with a pH of about 7.6 and an organic matter content of about 2.9 percent) and water at a 1:1 volumetric ratio. The prepared mud was dispensed in 365 mL aliquots into 16-ounce (oz.) non-perforated plastic pots with a surface area of 86.59 square centimeters (cm^2) leaving a headspace of 3 centimeters (cm) in each pot. Mud was allowed to dry overnight prior to planting or transplanting. Rice seeds were planted in Sun Gro MetroMix® 306 planting mixture, which typically has a pH of 6.0 to 6.8 and an organic matter content of about 30 percent, in plastic plug trays. Seedlings at the second or third leaf stage of growth were transplanted into 860 mL of mud contained in 32-oz. non-perforated plastic pots with a surface area of 86.59 cm^2 4 days prior to herbicide application. The paddy was created by filling the headspace of the pots with 2.5 to 3 cm of water. […] The plants were grown for 4-22 days in a greenhouse with an approximate 14 hr. photoperiod which was maintained at about 29° C. during the day and 26° C. during the night. Nutrients were added as Osmocote® (19:6:12, N:P:K+minor nutrients) at 2 g per 16-oz. pot and 4 g per 32-oz. pot. Water was added on a regular basis to maintain the paddy flood, and supplemental lighting was provided with overhead metal halide 1000-Watt lamps as necessary. The plants were employed for testing when they reached the first through fourth true leaf stage.
Treatments consisted of the acid or esters of 4-amino-3-chloro-5-fluoro-6-(4-chloro-2-fluoro-3-methoxy-phenyl)pyridine-2-carboxylic acid (compound A) each formulated as an SC (suspension concentrate) and various herbicidal components alone and in combination.
(§1) For formulated compounds, a measured amount was placed in an individual 100 or 200 mL glass vial and was dissolved in a volume of 1.25% (v/v) Agri-Dex® crop oil concentrate to obtain application solutions.
Applications were made by injecting with a pipetter appropriate amounts of the application solutions, individually and sequentially, into the aqueous layer of the paddy. Control plants were treated in the same manner with the solvent blank. Applications were made so that all treated plant material received the same concentrations of acetone and crop oil concentrate.
The treated plants and control plants were placed in a greenhouse as described above and water was added as needed to maintain a paddy flood. After approximately 3 weeks the condition of the test plants as compared with that of the untreated plants was determined visually and scored on a scale of 0 to 100 percent where 0 corresponds to no injury or growth inhibition and 100 corresponds to complete kill.
Colby's equation was used to determine the herbicidal effects expected from the mixtures (Colby, S. R. 1967. Calculation of the synergistic and antagonistic response of herbicide combinations. Weeds 15:20-22.).
The following equation was used to calculate the expected activity of mixtures containing two active ingredients, A and B: Expected=A+B−(A×B/100)

Another assay deals with ECHOR. The experiment in a line: Example VI in-water applied ternary mixtures, greenhouse, transplanted paddy rice weeds. It is filed as in vivo, Echinochloa oryzoides (Ard.) Fritsch. As for the experimental part:
Weed seeds or nutlets of the desired test plant species were planted in puddled soil (mud) prepared by mixing a shredded, non-sterilized mineral soil (50.5 percent silt, 25.5 percent clay, and 24 percent sand, with a pH of about 7.6 and an organic matter content of about 2.9 percent) and water at a 1:1 volumetric ratio. The prepared mud was dispensed in 365 mL aliquots into 16-ounce (oz.) non-perforated plastic pots with a surface area of 86.59 square centimeters (cm^2) leaving a headspace of 3 centimeters (cm) in each pot. Mud was allowed to dry overnight prior to planting or transplanting. Rice seeds were planted in Sun Gro MetroMix® 306 planting mixture, which typically has a pH of 6.0 to 6.8 and an organic matter content of about 30 percent, in plastic plug trays. Seedlings at the second or third leaf stage of growth were transplanted into 860 mL of mud contained in 32-oz. non-perforated plastic pots with a surface area of 86.59 cm^2 4 days prior to herbicide application. The paddy was created by filling the headspace of the pots with 2.5 to 3 cm of water. When required to ensure good germination and healthy plants, a fungicide treatment and/or other chemical or physical treatment was applied. The plants were grown for 4-22 days in a greenhouse with an approximate 14 hr. photoperiod which was maintained at about 29° C. during the day and 26° C. during the night. Nutrients were added as Osmocote® (19:6:12, N:P:K+minor nutrients) at 2 g per 16-oz. pot and 4 g per 32-oz. pot. Water was added on a regular basis to maintain the paddy flood, and supplemental lighting was provided with overhead metal halide 1000-Watt lamps as necessary. The plants were employed for testing when they reached the first through fourth true leaf stage.
Treatments consisted of the benzyl ester of 4-amino-3-chloro-5-fluoro-6-(4-chloro-2-fluoro-3-methoxy-phenyl)pyridine-2-carboxylic acid (Compound A), formulated as an SC (suspension concentrate), an ACCase inhibitor herbicide, and a third herbicidal component, each applied alone and in ternary combination. Forms of compound A were applied on an acid equivalent basis.
The ACCase inhibitor component was applied on an active ingredient basis and included cyhalofop-R-butyl formulated as Clincher® G and metamifop formulated as Metamifop EC. Other herbicidal components were applied on an active ingredient or acid equivalent basis depending on the compound and included penoxsulam formulated as Grasp® SC, bentazon sodium formulated as Basagran®, triclopyr […] (TEA) salt formulated as Grandstand® R, benzobicyclon formulated as Benzobicyclon, benfuresate formulated as Full Slot® WG, pyraclonil formulated as Pyraclon® Flowable, mefenacet (technical grade material), and pretilachlor (technical grade material).
Treatment requirements for each compound or herbicidal component were calculated based upon the rates being tested, the concentration of active ingredient or acid equivalent in the formulation, an application volume of 1 mL per component per pot, and an application area of 86.59 cm^2 per pot.
as §1
For technical grade compounds, a weighed amount was placed in an individual 100 to 200 mL glass vial and was dissolved in a volume of acetone to obtain concentrated stock solutions.
Applications were made by injecting with a pipetter appropriate amounts of the application solutions, into the aqueous layer of the paddy. Control plants were treated in the same manner with the solvent blank. Applications were made so that all treated plant material received the same concentrations of acetone and crop oil concentrate.
The treated plants and control plants were placed in a greenhouse as described above and water was added as needed to maintain a paddy flood. […]

Turning to `C[C@@H](Oc1ccc(Oc2nc3ccc(Cl)cc3o2)cc1)C(=O)N(C)c1ccccc1F` [Metamifop, (2R)-2-[4-[(6-chloro-2-benzoxazolyl)oxy]phenoxy]-N-(2-fluorophenyl)-N-methylpropanamide], the “Visual Weed Control (%) - 21 DAA SCPMA Obs” value in the assay with SCPMA (75 gai/ha) and with SCPMA (150 gai/ha) was 0% in each case. The “Visual Weed Control (%) - 24 DAA ECHOR Obs” value was determined as 10% with ECHOR (Table 71, 25 gai/ha) and 18% in the assay on ECHOR (Table 71, 50 gai/ha).
As for `CCCCOC(=O)[C@@H](C)Oc1ccc(Oc2ccc(C#N)cc2F)cc1` [Cyhalofop-butyl, butyl(2R)-2-[4-(4-cyano-2-fluorophenoxy)phenoxy]propanoate, reference compound], in the assay on SCPMA (180 gai/ha), the “Visual Weed Control (%) - 19 DAA SCPMA Obs” value is 0%. Moreover, the “Visual Weed Control (%) - 24 DAA ECHOR Obs” value in the assay with ECHOR (Table 67, 90 gai/ha) was determined as 25%.
Turning to `COc1c(Cl)ccc(-c2nc(C(=O)O)c(Cl)c(N)c2F)c1F` [Compound A Acid, 4-amino-3-chloro-6-(4-chloro-2-fluoro-3-methoxyphenyl)-5-fluoropyridine-2-carboxylic acid], the “Visual Weed Control (%) - 21 DAA SCPMA Obs” value with SCPMA (35 gae/ha) came out at 0%.
With `COc1c(Cl)ccc(-c2nc(C(=O)OCc3ccccc3)c(Cl)c(N)c2F)c1F` [Compound A Benzyl Ester, benzyl ester of 4-amino-3-chloro-5-fluoro-6-(4-chloro-2-fluoro-3-methoxy-phenyl)pyridine-2-carboxylic acid], the “Visual Weed Control (%) - 19 DAA SCPMA Obs” value with SCPMA (35 gae/ha) is 0%. The “Visual Weed Control (%) - 24 DAA ECHOR Obs” value with ECHOR (Table 67, 4 gae/ha) was determined as 0%; with ECHOR (Table 67, 8 gae/ha), 0%; in the assay on ECHOR (Table 67, 16 gae/ha) it was 10%; in the assay with ECHOR (Table 71, 8 gae/ha), 10%; with ECHOR (Table 71, 16 gae/ha), 25%.
